Laboratory results as given in US20130071854A1, “METHODS FOR THE IDENTIFICATION AND CHARACTERIZATION OF HDAC INTERACTING COMPOUNDS” (priority 2009, published 2013).
Like-named read-outs stand apart in the source and are kept apart here.

Tests used:
MTA1 = experiment: Competition binding assay in cell lysate, affinity matrix, MS (Mi-2/NuRD interactor); set-up: species or system human; conditions: Molt-4 cell lysate
PPP4C = target: T1, PPP4C (Homo sapiens, UniProt P60510); experiment: Competition binding assay in cell lysate, affinity matrix, MS; conditions: PPP4C, read-out: IC50
T1 construct: endogenous in cells
T1 sequence (P60510 1-307): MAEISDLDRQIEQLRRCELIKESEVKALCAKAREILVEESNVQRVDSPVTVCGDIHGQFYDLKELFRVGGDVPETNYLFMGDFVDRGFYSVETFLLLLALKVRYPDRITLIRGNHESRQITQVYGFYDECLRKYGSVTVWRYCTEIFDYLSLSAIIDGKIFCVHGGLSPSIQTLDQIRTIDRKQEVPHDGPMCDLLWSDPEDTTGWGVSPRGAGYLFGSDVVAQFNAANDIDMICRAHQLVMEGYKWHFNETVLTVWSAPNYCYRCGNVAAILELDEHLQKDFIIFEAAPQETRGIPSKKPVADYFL

[1] = system: histone acetylation, K562 cells; experiment: Mapping of histone acetylation by LC-MS/MS of K562 cells treated with HDACi; format: cell-based, human; conditions: K562 cells treated 6 hours, isobaric tagging and MS/MS
ISOC2 = target: T2, ISOC2 (Homo sapiens, UniProt Q96AB3); experiment: Competition binding assay in cell lysate, affinity matrix, MS; conditions: ISOC2; K-562 cell lysate
T2 construct: endogenous in cells
T2 sequence (Q96AB3 whole entry): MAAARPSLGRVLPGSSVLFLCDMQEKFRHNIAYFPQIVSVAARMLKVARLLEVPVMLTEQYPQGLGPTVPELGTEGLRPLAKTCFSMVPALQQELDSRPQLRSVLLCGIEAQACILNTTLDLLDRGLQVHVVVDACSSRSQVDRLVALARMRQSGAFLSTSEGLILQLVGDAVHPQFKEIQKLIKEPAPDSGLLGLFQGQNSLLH

ALDH2 = target: T3, ALDH2 (Homo sapiens, UniProt P05091); experiment: as above; conditions: ALDH2, read-out: IC50
T3 construct: endogenous in cells
T3 sequence (P05091 18-517): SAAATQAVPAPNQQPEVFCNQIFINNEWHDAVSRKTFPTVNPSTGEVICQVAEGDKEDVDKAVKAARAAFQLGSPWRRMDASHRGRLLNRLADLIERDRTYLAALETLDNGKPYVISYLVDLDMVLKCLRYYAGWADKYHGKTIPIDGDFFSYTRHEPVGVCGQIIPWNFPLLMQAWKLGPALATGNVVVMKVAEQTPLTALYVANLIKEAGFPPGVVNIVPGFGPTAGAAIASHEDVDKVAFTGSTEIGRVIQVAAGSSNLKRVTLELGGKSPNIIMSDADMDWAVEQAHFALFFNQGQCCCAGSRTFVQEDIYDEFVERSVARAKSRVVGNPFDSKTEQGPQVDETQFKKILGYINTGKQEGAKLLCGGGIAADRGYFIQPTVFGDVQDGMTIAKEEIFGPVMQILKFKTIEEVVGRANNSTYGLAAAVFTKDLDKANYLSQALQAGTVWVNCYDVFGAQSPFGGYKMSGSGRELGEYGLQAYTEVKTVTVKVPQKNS

Sin3 complex = experiment: Chemoproteomic binding profiling, K562 cell extract, SAHA/ITF2357 probe matrix (Kd app); set-up: species or system human
GPS2 = conditions: Molt-4 cell lysate
MBD3 = experiment: Competition binding assay in cell lysate, affinity matrix, MS (Mi-2/NuRD interactor)
HSPD1 = target: T4, HSPD1 (Homo sapiens, UniProt P10809); experiment: Competition binding assay in cell lysate, affinity matrix, MS; conditions: HSPD1, read-out: IC50
T4 construct: endogenous in cells
T4 sequence (P10809 27-573): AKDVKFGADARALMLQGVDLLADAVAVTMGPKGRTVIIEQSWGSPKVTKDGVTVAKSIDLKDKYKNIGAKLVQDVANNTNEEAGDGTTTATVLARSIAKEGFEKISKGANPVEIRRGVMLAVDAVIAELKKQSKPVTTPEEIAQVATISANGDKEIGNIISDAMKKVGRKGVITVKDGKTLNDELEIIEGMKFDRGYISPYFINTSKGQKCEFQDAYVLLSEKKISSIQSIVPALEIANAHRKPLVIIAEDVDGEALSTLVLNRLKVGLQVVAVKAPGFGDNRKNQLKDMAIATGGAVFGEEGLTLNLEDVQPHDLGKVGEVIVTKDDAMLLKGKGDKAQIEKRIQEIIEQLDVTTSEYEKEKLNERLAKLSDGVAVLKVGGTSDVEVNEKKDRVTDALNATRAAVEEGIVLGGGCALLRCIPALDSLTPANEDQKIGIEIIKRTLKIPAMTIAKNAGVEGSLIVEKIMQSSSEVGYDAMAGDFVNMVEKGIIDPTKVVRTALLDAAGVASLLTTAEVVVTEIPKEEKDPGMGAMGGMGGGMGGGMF

NuRD complex = experiment: Chemoproteomic binding profiling, K562 cell extract, SAHA/ITF2357 probe matrix (Kd app); set-up: species or system human
RBBP7 = experiment: Competition binding assay in cell lysate, affinity matrix, MS (Sin3/Mi2-NuRD interactor)
ISOC1 = target: T5, ISOC1 (Homo sapiens, UniProt Q96CN7); experiment: Competition binding assay in cell lysate, affinity matrix, MS; conditions: ISOC1, read-out: IC50
T5 construct: endogenous in cells
T5 sequence (Q96CN7 1-298): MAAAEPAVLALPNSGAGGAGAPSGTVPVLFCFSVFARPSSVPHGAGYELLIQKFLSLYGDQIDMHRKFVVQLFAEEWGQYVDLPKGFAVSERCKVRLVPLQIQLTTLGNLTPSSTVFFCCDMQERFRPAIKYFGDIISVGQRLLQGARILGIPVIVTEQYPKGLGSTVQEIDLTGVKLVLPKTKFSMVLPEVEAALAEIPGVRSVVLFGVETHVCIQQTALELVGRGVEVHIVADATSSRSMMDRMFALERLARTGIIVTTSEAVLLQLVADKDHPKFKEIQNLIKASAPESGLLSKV

GATAD2B = experiment: Competition binding assay in cell lysate, affinity matrix, MS (Mi-2/NuRD interactor)
WDR5 = target: T6, WDR5 (Homo sapiens, UniProt P61964); experiment: Competition binding assay in cell lysate, affinity matrix, MS; conditions: WDR5; K-562 cell lysate
T6 construct: endogenous in cells

TBL1X = conditions: K-562 cell lysate
BZW2 = target: T7, BZW2 (Homo sapiens, UniProt Q9Y6E2); experiment: Competition binding assay in cell lysate, affinity matrix, MS; conditions: BZW2, read-out: IC50
T7 construct: endogenous in cells
T7 sequence (Q9Y6E2 1-419): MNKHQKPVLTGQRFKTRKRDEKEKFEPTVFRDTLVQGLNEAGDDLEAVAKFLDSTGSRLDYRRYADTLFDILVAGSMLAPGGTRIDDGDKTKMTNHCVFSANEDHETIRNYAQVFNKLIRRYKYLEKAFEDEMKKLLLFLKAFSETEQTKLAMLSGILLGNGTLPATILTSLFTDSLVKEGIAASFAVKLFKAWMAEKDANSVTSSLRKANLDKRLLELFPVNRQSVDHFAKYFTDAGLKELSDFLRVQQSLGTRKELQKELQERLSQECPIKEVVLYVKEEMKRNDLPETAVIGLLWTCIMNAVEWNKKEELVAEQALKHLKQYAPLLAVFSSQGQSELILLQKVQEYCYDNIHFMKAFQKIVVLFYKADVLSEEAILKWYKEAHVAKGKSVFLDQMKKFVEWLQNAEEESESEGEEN

MTA2 = experiment: Competition binding assay in cell lysate, affinity matrix, MS (Mi-2/NuRD interactor)
CoREST complex = experiment: Chemoproteomic binding profiling, K562 cell extract, SAHA/ITF2357 probe matrix (Kd app); set-up: species or system human; conditions: read-out: Kd^app GSE1
DNTTIP1 = experiment: Competition binding assay in cell lysate, affinity matrix, MS; conditions: K-562 cell lysate
GATAD2A = experiment: Competition binding assay in cell lysate, affinity matrix, MS (Mi-2/NuRD interactor)
MTA3 = experiment: as above; conditions: K-562 cell lysate

CC(/C=C/C(=O)NO)=C\[C@@H](C)C(=O)c1ccc(N(C)C)cc1 [Trichostatin A]
IC50 (MTA1): 60 nM
IC50 (PPP4C; K-562 cell lysate): 3000 nM
IC50 (PPP4C; Molt-4 cell lysate): 3000 nM
abundance of acetylated histone peptides (in words) [1]: pronounced abundance of hyperacetylated histone peptides
IC50 (ISOC2): 3000 nM
IC50 (ALDH2; K-562 cell lysate): 3000 nM
IC50 (ALDH2; Molt-4 cell lysate): 3000 nM
Kd (Sin3 complex; protein SAP30, read-out: Kd^app SAP30): 30 nM
Kd (Sin3 complex; protein SIN3A, read-out: Kd^app SIN3A): 30 nM
Kd (Sin3 complex; protein SIN3B, read-out: Kd^app SIN3B): 30 nM
IC50 (GPS2): 100 nM
IC50 (TBL1XR1; K-562 cell lysate): 70 nM
IC50 (TBL1XR1; Molt-4 cell lysate): 70 nM
IC50 (MBD3; K-562 cell lysate): 50 nM
IC50 (MBD3; Molt-4 cell lysate): 40 nM
IC50 (HSPD1; K-562 cell lysate): 3000 nM
IC50 (HSPD1; Molt-4 cell lysate): 3000 nM
Kd (NuRD complex; read-out: Kd^app CHD4): 60 nM
Kd (NuRD complex; read-out: Kd^app GATAD2B): 30 nM
Kd (NuRD complex; read-out: Kd^app MTA1): 120 nM
IC50 (RBBP7; K-562 cell lysate): 180 nM
IC50 (RBBP7; Molt-4 cell lysate): 120 nM
IC50 (ISOC1; K-562 cell lysate): 3000 nM
IC50 (ISOC1; Molt-4 cell lysate): 3000 nM
IC50 (GATAD2B; K-562 cell lysate): 60 nM
IC50 (GATAD2B; Molt-4 cell lysate): 60 nM
IC50 (WDR5): 420 nM
IC50 (TBL1X): 50 nM
IC50 (BZW2; K-562 cell lysate): 2790 nM
IC50 (BZW2; Molt-4 cell lysate): 2450 nM
IC50 (MTA2; K-562 cell lysate): 70 nM
IC50 (MTA2; Molt-4 cell lysate): 60 nM
Kd (CoREST complex): 4 nM
IC50 (DNTTIP1): 50 nM
IC50 (GATAD2A; K-562 cell lysate): 60 nM
IC50 (GATAD2A; Molt-4 cell lysate): 40 nM
IC50 (MTA3): 60 nM
